Data from patent US20170356126A1, “LIQUID FILM CLEAVAGE AGENT” (Kao Corporation, priority 2014, published 2017).

Protocol: Further, the water solubility is considered to be applied also to menstrual blood, urine or the like which contains water as a main component.
Specifically, the agent is added for every 0.0001 g, and the measurement is performed.
These numerical values were measured by the above-mentioned measuring method. […] Moreover, the water solubility was measured by adding the agent for every 0.0001 g.

Substance: dimethyl silicone oil [Comparative Example 2, reference compound]
- Water solubility of the above agent: 0.0001 g
